{
  "source": "patent US9879029B2",
  "about": "“ERK inhibitors” (Eli Lilly and Company, priority 2014, dated 2018)",
  "key": {"[1]": {"biological_target": "T1, ERK2 (Homo sapiens, UniProt P28482)", "T1 construct": "purchased Invitrogen PV3595B", "T1 sequence (P28482 whole entry)": "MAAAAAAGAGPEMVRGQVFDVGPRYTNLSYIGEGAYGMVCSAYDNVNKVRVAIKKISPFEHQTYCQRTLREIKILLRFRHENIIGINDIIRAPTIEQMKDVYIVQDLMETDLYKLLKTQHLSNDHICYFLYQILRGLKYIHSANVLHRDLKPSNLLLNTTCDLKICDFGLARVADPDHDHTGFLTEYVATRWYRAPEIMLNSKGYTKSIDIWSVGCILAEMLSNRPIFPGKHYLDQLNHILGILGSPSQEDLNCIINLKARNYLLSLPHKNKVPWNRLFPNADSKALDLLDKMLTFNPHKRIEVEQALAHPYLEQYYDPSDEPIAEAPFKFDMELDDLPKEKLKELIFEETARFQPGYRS", "assay": "ERK2 kinase assay (TR-FRET)", "assay_type": "biochemical", "conditions": "Abs_IC50, ATP 10 μM; ±0.682, n=17", "protocol": "The purpose of this assay is to measure the ability of compounds to inhibit ERK2 kinase activity. Perform the ERK2 kinase assay in vitro using a TR-FRET assay. Start all reactions (12.5 μL) by adding 5 µL of ERK2 enzyme (Invitrogen, #PV3595B, final conc 50 ng/mL) plus substrate GFP-ATF2 (Invitrogen, #PV4445, final conc 0.2 μM), 5 µL of ATP solution (Invitrogen, #PV3227, final conc 10 μM) prepared in kinase buffer (50 mM Hepes pH 7.4, 5 mM MgCl2, 0.1 mM EGTA, 0.01% Triton X-100, 1 mM DTT) and 2.5 μL of testing compounds in DMSO solution ([…], v/v) in a 384-well PROXIPLATE™ (Perkin Elmer, #GRN6260). Incubate reactions at room temperature for 60 minutes. Stop reactions by addition of […] of stop buffer (10 mM EDTA, 2 nM Tb-anti-pATF2 (pThr71) antibody, Invitrogen, #PV4448) in TR-FRET dilution buffer (Invitrogen, # PV3574). Incubate the plates at room temperature for an additional 60 minutes and read ON ENVISION® (PerkinElmer) plate reader at the excitation wavelength of 340 nm. Calculate a TR-FRET ratio by dividing the GFP acceptor emission signal (at 520 nm) by the Tb donor emission signal (at 495 nm). Calculate percent inhibition using compound wells relative to on-plate Max (DMSO control) and Min (No enzyme added) control wells TR-FRET ratio data {% inhibition=100−[(test compound−median Min)/(median Max−Min)×100]}. […]"}, "[2]": {"test_system": "human pancreatic cancer cells SW1990", "assay": "Xenograft tumor model SW1990", "assay_type": "in vivo, female athymic nude mice", "conditions": "oral", "protocol": "(§1) The purpose of this assay is to measure reduction in tumor volume in response to test compound administration. Expand human colorectal cancer cells HCT116 (ATCC, #CCL-247) or human non-small cell lung cancer cells NCI-H358 (ATCC, # CRL-5807) in culture, harvest and inject 5×10e^6 cells in 200 μL of 1:1 HBSS+matrigel solution subcutaneously on to the rear right flank of female athymic nude mice (22-25 gm, Harlan Laboratories). Expand human pancreatic cancer cells SW1990 (ATCC, # CRL-2172) in culture, harvest and inject 2×10e^6 cells in 200 μL of 1:1 HBSS+matrigel solution subcutaneously on to the rear right flank of female athymic nude mice (22-25 gm, Harlan Laboratories). Expand human pancreatic cancer cells MIA PACA-2 (ATCC, # CRL-1420) or human non-small cell lung cancer cells A549 (ATCC, # CCl-185) in culture, harvest and inject 5×10e^6 cells in 200 μL of 1:1 HBSS+matrigel solution subcutaneously on to the rear right flank of female CB-17 SCID mice (22-25 gm, Charles River Laboratories International Inc.). Expand human melanoma cells A-375 (ATCC, # CRL-1619) in culture, harvest and inject 5×10e^6 cells in 200 μL of 1:1 HBSS+matrigel solution subcutaneously on to the rear right flank of female NIH nude rats (140-160 gm, Taconic Farms). […] Tumor response is determined by tumor volume measurement performed twice a week during the course of treatment."}, "[3]": {"biological_target": "T2, ERK1 (Homo sapiens, UniProt P27361)", "T2 construct": "purchased Invitrogen PR5254B", "T2 sequence (P27361 whole entry)": "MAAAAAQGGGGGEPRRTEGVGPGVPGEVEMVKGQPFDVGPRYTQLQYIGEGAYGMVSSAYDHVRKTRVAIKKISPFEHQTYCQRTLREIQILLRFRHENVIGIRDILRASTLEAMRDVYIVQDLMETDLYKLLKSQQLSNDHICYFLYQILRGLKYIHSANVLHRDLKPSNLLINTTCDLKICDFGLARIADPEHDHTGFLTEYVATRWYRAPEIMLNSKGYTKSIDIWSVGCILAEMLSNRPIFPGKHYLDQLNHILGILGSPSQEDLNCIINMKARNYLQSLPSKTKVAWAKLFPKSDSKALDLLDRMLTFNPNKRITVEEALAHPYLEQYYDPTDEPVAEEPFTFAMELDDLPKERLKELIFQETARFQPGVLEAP", "assay": "ERK1 kinase assay (TR-FRET)", "assay_type": "biochemical", "conditions": "Abs_IC50, ATP 10 μM; ±0.608, n=16", "protocol": "The purpose of this assay is to measure the ability of compounds to inhibit ERK1 kinase activity. Perform the ERK1 kinase assay in vitro using a TR-FRET assay. […] Incubate the reaction mixture at room temperature for 60 minutes. Stop the reaction by addition of 12.5 μL of stop buffer (10 mM EDTA, 2 nM Tb-anti-pATF2 (pThr71) antibody, Invitrogen, #PV4448) in TR-FRET dilution buffer (Invitrogen, # PV3574). Incubate the plates at room temperature for an additional 60 minutes and read on an ENVISION® (PerkinElmer) plate reader at the excitation wavelength 340 nm. Calculate the TR-FRET ratio by dividing the GFP acceptor emission signal (at 520 nm) by the Tb donor emission signal (at 495 nm). Calculate percent inhibition using compound treated wells relative to on-plate Max (DMSO control) and Min (No enzyme added) control wells TR-FRET ratio data {% inhibition=100−[(test compound−median Min)/(median Max−median Min)×100]}). Test all compounds at 10 concentrations (20 μM to 0.001 μM) using a 1:3 dilution scheme. Derive Abs_IC50 values by fitting percent inhibition and ten-point concentration data to a 4-parameter nonlinear logistic equation (equation 205) using ACTIVITYBASE® 7.3 (ID Business Solutions Limited)."}, "[4]": {"test_system": "human non-small cell lung cancer cells NCI-H358", "assay": "Xenograft tumor model NCI-H358", "assay_type": "in vivo, female athymic nude mice", "conditions": "oral, p <0.001", "protocol": "as §1"}, "[5]": {"test_system": "human non-small cell lung cancer cells A549", "assay": "Xenograft tumor model A549", "assay_type": "in vivo, female CB-17 SCID mice", "conditions": "oral", "protocol": "as §1"}, "[6]": {"test_system": "human melanoma cells A-375", "assay": "Xenograft tumor model A-375", "assay_type": "in vivo, female NIH nude rats", "conditions": "oral; for Regression (%): p <0.001", "protocol": "The purpose of this assay is to measure reduction in tumor volume in response to test compound administration. Expand human colorectal cancer cells HCT116 (ATCC, #CCL-247) or human non-small cell lung cancer cells NCI-H358 (ATCC, # CRL-5807) in culture, harvest and inject 5×10e^6 cells in 200 μL of 1:1 HBSS+matrigel solution subcutaneously on to the rear right flank of female athymic nude mice (22-25 gm, Harlan Laboratories). Expand human pancreatic cancer cells SW1990 (ATCC, # CRL-2172) in culture, harvest and inject 2×10e^6 cells in 200 μL of 1:1 HBSS+matrigel solution subcutaneously on to the rear right flank of female athymic nude mice (22-25 gm, Harlan Laboratories). Expand human pancreatic cancer cells MIA PACA-2 (ATCC, # CRL-1420) or human non-small cell lung cancer cells A549 (ATCC, # CCl-185) in culture, harvest and inject 5×10e^6 cells in 200 μL of 1:1 HBSS+matrigel solution subcutaneously on to the rear right flank of female CB-17 SCID mice (22-25 gm, Charles River Laboratories International Inc.). Expand human melanoma cells A-375 (ATCC, # CRL-1619) in culture, harvest and inject 5×10e^6 cells in 200 μL of 1:1 HBSS+matrigel solution subcutaneously on to the rear right flank of female NIH nude rats (140-160 gm, Taconic Farms). Measure tumor growth and body weight twice per week beginning the seventh day after the implantation. When tumor sizes reach 200-400 mm^3, randomize animals and group into groups of eight to ten animals. Prepare test compound in an appropriate vehicle (vehicle: 1% HEC/0.25% Tween 80/0.05% Antifoam) and administer by oral gavage for 14 to 28 days. Tumor response is determined by tumor volume measurement performed twice a week during the course of treatment."}},
  "data": [
    {"smiles": "COCCN1C(=O)c2cc(-c3ccnc(Nc4ccnn4C)c3)sc2C1(C)C", "note": "[Example 1, 5-(2-Methoxyethyl)-6,6-dimethyl-2-{2-[(1-methyl-1H-pyrazol-5-yl)amino]pyridin-4-yl}-5,6-dihydro-4H-thieno[2,3-c]pyrrol-4-one]", "values": [
      {"measurement": "IC50", "setting": "[1]", "result": 1.93, "unit": "nM"},
      {"measurement": "Delta T/C (%)", "setting": "[2]; SW1990, 10 mg/kg BID, p 0.364", "result": 24, "unit": "%"},
      {"measurement": "Delta T/C (%)", "setting": "[2]; SW1990, 30 mg/kg BID, p 0.005", "result": 64, "unit": "%"},
      {"measurement": "IC50", "setting": "[3]", "result": 1.5, "unit": "nM"},
      {"measurement": "Regression (%)", "setting": "[4]; NCI-H358, 25 mg/kg BID", "result": "−13", "unit": "%"},
      {"measurement": "Regression (%)", "setting": "[4]; NCI-H358, 50 mg/kg BID", "result": "−35", "unit": "%"},
      {"measurement": "Delta T/C (%)", "setting": "[5]; A549, 10 mg/kg BID, p 0.471", "result": 13, "unit": "%"},
      {"measurement": "Delta T/C (%)", "setting": "[5]; A549, 30 mg/kg BID, p <0.001", "result": 66, "unit": "%"},
      {"measurement": "Regression (%)", "setting": "[6]; A-375, 3 mg/kg BID", "result": "−60", "unit": "%"},
      {"measurement": "Delta T/C (%)", "setting": "[6]; A-375, 3 mg/kg QD, p 0.852", "result": 10, "unit": "%"},
      {"measurement": "Regression (%)", "setting": "[6]; A-375, 15 mg/kg BID", "result": "−47", "unit": "%"}
    ]}
  ]
}
